From patent publication US20080027098A1, “Derivatives of alpha-phenylthiocarboxylic and alpha-phenyloxy-carboxylic acids useful for the treatment of diseases responding to PPARalpha activation” (SIGMA-TAU INDUSTRIE FARMACEUTICHE RIUNITE S.p.A., priority 2002, published 2008)

Key:
[1] = test system: high-cholesterol diet-fed CD-1 mice; assay: Hypolipidemic activity in high-cholesterol diet-fed CD-1 mice; assay type: in vivo; conditions: 16 days
Method: High-Cholesterol Diet-Fed CD-1 Mice
ST2518, fenofibrate, rosiglitazone and pioglitazone (PPARγ agonists) were administered by gavage, for 16 days, to CD-1 mice fed with high-cholesterol diet, and plasma parameters were evaluated in post-absorptive state.

hAPO A I transgenic mice = assay: Plasma lipid parameters in hAPO A I transgenic mice; assay type: in vivo; conditions: 16 days
Method: ST2518, fenofibrate and rosiglitazone were administered by gavage for 16 days, and plasma (p) parameters were evaluated in post-absorptive state.

[2] = test system: standard diet-fed c57bl/6j mice; assay: Hypolipidemic activity in standard diet-fed c57bl/6j mice; assay type: in vivo; conditions: for Triglycerides (plasma): 15 days, post-absorptive state, control 53.8 ± 4.2
Method: Standard Diet-Fed c57bl/6j Mice
ST2518 was evaluated in comparison with fenofibrate also in c57b1/6j mice fed with standard diet (Table 5).

db/db mice = assay: Increase in HDL-cholesterol levels in db/db mice; assay type: in vivo; conditions: further experiment, oral twice daily 14 days, dose equimolar to 25 mg/kg of ST2195, 8 hours after last treatment
Method: Increase in HDL-Cholesterol Levels in db/db Mice
In this experiment db/db mice were used in which PPARα expression is above normal (Memon et al., Endocrinology 2000, 4021-4031) and HDL-cholesterol levels are substantially elevated (Silver et al., J Biol Chem 1999, 274: 4140-4146).
The C57BL[KsJ db/db mice were acclimatised for one week in standard conditions (22±2° C.; 55±15% humidity; 15-20 air changes/hour; 12 hours light/darkness cycle with light from 7.00 a.m. to 7 p.m.) with a standard 4 RF21 diet (Mucedola). Blood samples were taken in post-absorption conditions (fasting from 8.30 a.m. to 4.30 p.m.) from the caudal vein with the aid of a Jelco 22G catheter (Johnson and Johnson). Glucose, insulin, triglyceride, cholesterol, free fatty acid and urea levels were checked in plasma for a homogeneous distribution of the mice in the treatment groups.
At the beginning of treatment the animals' body weight was checked and arrangements were made to monitor their water and feed consumption. […]
The compound tested, obtained as described in example 4 (ST 1929) was administered at the dose of 24 mg/kg in 10 ml/kg of vehicle (1% CMC containing Tween 80 0.5% in deionized H2O).
The other compounds tested were also administered at a dose equivalent to that in example 4.
Ciprofibrate, a known PPARα agonist (Varanasi et al., J Biol Chem 1996, 271: 2147-2155; Latruffe et al. Cell Biochem Biophys 2000, 32 Spring: 213-220) was administered at the dose of 20 mg/kg (Dwivedi et al., Toxicol Pathol 1989, 17: 16-26; Qi et al., Proc Natl Acad Sci USA 1999, 96: 1585-1590).
The animals were sacrificed (by decapitation) in conditions of post-absorption (fasting from 9.30 a.m. to 4.30 p.m.) 7 hours after the last treatment. The levels of a number of important lipid and carbohydrate metabolism parameters were determined in the serum.
The HDL-cholesterol levels were measured by treating the serum with phosphotungstic-acid-based precipitating reagent (ABX Diagnostics) which removes the chylomicrons, very low density and low density lipoproteins and determining the HDL-cholesterol levels in the supernatant with the aid of the Cholesterol Kit (ABX Diagnostics) and the Cobas Mira S Autoanalyzer (Roche).
In a further experiment, where the above reported ST2195 was used as reference compound, db/db mice were treated orally twice daily (8.30 a.m. and 6.30 p.m.) for 14 days with the test items (equimolar to 25 mg/kg of ST2 195) giving the following results reported in Table 3: […]

CC(C)(Sc1cccc(OCCc2ccc(Cl)cc2)c1)C(=O)O [ST2518, 2-[3-[2-(4-chlorophenyl)ethoxy]phenylthio]-2-methylpropanoic acid]
P-Cholesterol ([1]; 25 mg/Kg/bid by gavage, post-absorptive state, control 350 ± 28): 200 ± 29 Δ mg/dL | effect on plasma-cholesterol and triglyceride levels (in words) ([1]; gavage, high-cholesterol diet): significantly reduced plasma-cholesterol and triglyceride levels | P-triglycerides (hAPO A I transgenic mice; 25 mg/kg/bid by gavage, post-absorptive state, control 75 ± 6): 36 ± 3 δ mg/dl | P-hdl-cholesterol (hAPO A I transgenic mice; 25 mg/kg/bid by gavage, post-absorptive state, control 163 ± 6): 252 ± 18 δ mg/dl | effect on HDL-cholesterol (in words) (hAPO A I transgenic mice; gavage): increased HDL-cholesterol more than fenofibrate | effect on triglyceride levels (in words) (hAPO A I transgenic mice; gavage): effective in reducing triglyceride levels | melting point: 105 to 106 °C | Triglycerides (plasma) ([2]; 5 mg/kg/bid by gavage): 29.4 ± 3.0 Δ mg/dl | Triglycerides (plasma) ([2]; 15 mg/kg/bid by gavage): 29.5 ± 3.4 Δ mg/dl | Triglycerides (plasma) ([2]; 25 mg/kg/bid by gavage): 24.6 ± 2.0 Δ mg/dl | effect on plasma triglyceride levels (in words) ([2]; treatment for 15 days, standard diet): significantly reduced plasma triglyceride levels to a higher extent than fenofibrate and muraglitazar | Increase in HDL-cholesterol levels (%) (db/db mice): +46Δ %
